# Results from patent US10213451B2, “Methods and compounds for modulating the secretion or expression of adhesion proteins or angiopoietins of cells” (PACIFIC ARROW LIMITED, priority 2004, dated 2019).
# Where two headings read alike, the source gives them in different places.
# Experiments:
# tumor growth = assay: MTT anticancer activity of Y, X and hydrolysis products (FIG. 4C); format: cell-based; settings: for IC50: read-out: IC50, inhibits tumor growth / anticancer activity
# Procedure, shortened: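 Tumour cell lines seeded 24 h beforehand (10,000–40,000/well by line), then exposed to drug for 48 h (HepG2, U2OS 72 h; MCF-7 96 h). MTT 0.5 mg/mL added for 1 h, formazan dissolved in DMSO, OD 490 nm. % growth relative to pre-treatment (T0) and control; % cytotoxicity used when TD<T0.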
# [1] = system: myosin expression in ES2 cells; assay: Microarray gene expression, Table 7; format: cell-based, human; settings: for MYO6 myosin VI, gene expression ratio to no drug control (D): probe 203215_s_at; for MYO5A myosin VA, gene expression ratio to no drug control (D): probe 204527_at; for MYH9 myosin, heavy polypeptide 9, non-muscle, gene expression ratio to no drug control (D): probe 211926_s_at; for MYO1D myosin ID, gene expression ratio to no drug control (D): probe 212338_at; for MYH10 myosin, heavy polypeptide 10, non-muscle, gene expression ratio to no drug control (D): probe 212372_at; for MYO1C Myosin IC, gene expression ratio to no drug control (D): probe 225080_at; for expression ratio to the control, myosin family: span over probes of Table 7
# Protocol: (§1) Y/D is the ratio (in folds) of gene expression in cells treated with compound Y as compared with those of the no drug control (D),
# (§2) YM/D is the ratio of gene expression in cells treated with compound YM (ACH-Y, Y without sugar moiety) compared with those of the no drug control (D)
# (§3) Cell culture and drug-treatment.: ES2 cells were seeded in a T-25 flask with 4.5 million cells per flask for 24 hours. Cell culture was replaced with fresh medium with xanifolia-Y (Y) or DMSO no drug control (D) for 24 hours. Cells were then harvested for RNA isolation. Three experiments were done.
# (§4) RNA extraction, labeling, hybridization, and data analysis. RNA was extracted from tumor cells using the Qiagen RNeasy Kit. RNA quality and quantity was checked by the Agilent BioAnalyzer and the NanoDrop® ND-1000 spectrophotometer respectively before further manipulation. The first and second cDNA strands were synthesized from 20 ng of total RNA using the Affymetrix T7 oligo(dT) primer protocol and kit for the two-cycle amplification. To produce amplified biotin-labeled-cRNA, the cDNA was […] by in vitro transcription using the MegaScript kit from Ambion. 15.0 μg of the labeled cRNA was fragmented and re-checked for concentration using the NanoDrop® ND-1000 spectrophotometer. A hybridization cocktail containing Affymetrix spike-in controls and fragmented labeled cRNA was loaded onto the Human U133 Plus 2.0 GeneChip® oligonucleotide array. The Affymetrix array (Affymetrix, Inc. Santa Clara, Calif.) is comprised of over 1,300,000 unique oligonucleotide features that represent greater than 38,500 well-substantiated human genes. The array was hybridized for 16 hours at 45° C. with rotation at 60 rpm then washed and stained with a strepavidin, R-phycoerythrin conjugate stain on the Affymetrix Fluidicis Station 450. Signal amplification was done using biotinylated antistreptavidin. The arrays were scanned using the GeneChip® 3000 confocal laser scanner with autoloader. The images were analyzed and quality control metrics recorded using Affymetrix GCOS software version 1.4. Lastly, the expression value for each gene was calculated using dChip PM-only model based or Plier algorithm.
# (§5) Pairwise comparisons were made as follows: Treated vs. Control (Y vs. D), Modified Drug vs Control (YM/ACY-H vs. D) and Treated vs. Modified Drug (Y vs. YM/ACH-Y) Cel files analyzed using the Bioconductor package of R Statistical programming. Limma analysis generated a reasonable number of changing genes between the samples.
# (§6) The raw data in the .CEL files were normalized by the GCRMA method (robust multi-array analysis). It is implemented in Bioconductor (http://www.bioconductor.org/). The raw signal intensity data were normalized, background corrected and summarized based on certain statistical models, and an expression value, in log 2-scale, is obtained per chip per probe set. Then the null hypothesis was tested that there's no significant changes in gene expression between the treatment pairs. This was done by LIMMA and is also implemented in Bioconductor. It uses empirical Bayes method to estimate the variance in gene expression. One comparison was made, namely, High Grade vs. Low Grade. The raw p-values were adjusted by the Benjamnin-Hochberg method for false discovery rate (FDR) control. All data sets contained a significant number of genes with a p-value less than 0.05, which is that the probability that a gene is NOT differential expressed (false positive) is 1:20.
# [2] = system: cadherins expression in ES2 cells; assay: Microarray gene expression, Table 8; format: cell-based, human; settings: for CTNNB1 catenin (cadherin-associated protein), beta 1, 88 kDa, gene expression ratio to no drug control (D): probe 201533_at; for CTNNAL1 catenin (cadherin-associated protein), alpha-like 1, gene expression ratio to no drug control (D): probe 202468_s_at; for CDH2 cadherin 2, type 1, N-cadherin (neuronal), gene expression ratio to no drug control (D): probe 203440_at; for CDH5 cadherin 5, type 2, VE-cadherin, gene expression ratio to no drug control (D): probe 204677_at; for CDH12 cadherin 12, type 2 (N-cadherin 2), gene expression ratio to no drug control (D): probe 207149_at; for CTNND1 catenin (cadherin-associated, protein), delta 1, gene expression ratio to no drug control (D): probe 208407_s_at; for CTNNA1 catenin (cadherin-associated protein), alpha 1, 102 kDa, gene expression ratio to no drug control (D): probe 210844_x_at
# Protocol: as §1, §2, §3, §4, §5, §6
# [3] = system: potassium channel, subfamily U, protein expression in ES2 cells; assay: Microarray gene expression, Table 18; format: cell-based, human; settings: probe 237273_at
# Protocol: as §1, §2, §3
# RNA extraction, labeling, hybridization, and data analysis. RNA was extracted from tumor cells using the Qiagen RNeasy Kit. RNA quality and quantity was checked by the Agilent BioAnalyzer and the NanoDrop® ND-1000 spectrophotometer respectively before further manipulation. […] The images were analyzed and quality control metrics recorded using Affymetrix GCOS software version 1.4. Lastly, the expression value for each gene was calculated using dChip PM-only model based or Plier algorithm.
# Pairwise comparisons were made as follows: Treated vs. Control (Y vs. D), Modified Drug vs Control (YM/ACY-H vs. D) and Treated vs. Modified Drug (Y vs. YM/ACH-Y) Cel files analyzed using the Bioconductor package of R Statistical programming. […]
# [4] = system: Fibronectin secretion from lung carcinoma cells (H460); assay: Fibronectin secretion (Western blot), H460 cells; format: cell-based, human; settings: for % inhibition of Fibronectin secretion: H460 cells
SMILES,IC50 (tumor growth; FIG. 4C),"MYLK myosin, light polypeptide kinase, gene expression ratio to no drug control (D) ([1]; probe 202555_s_at)","MYO6 myosin VI, gene expression ratio to no drug control (D) [1]","MYO5A myosin VA, gene expression ratio to no drug control (D) [1]","MYH9 myosin, heavy polypeptide 9, non-muscle, gene expression ratio to no drug control (D) [1]","MYO1D myosin ID, gene expression ratio to no drug control (D) [1]","MYH10 myosin, heavy polypeptide 10, non-muscle, gene expression ratio to no drug control (D) [1]","MYLK myosin, light polypeptide kinase, gene expression ratio to no drug control (D) ([1]; probe 224823_at)","MYO1C Myosin IC, gene expression ratio to no drug control (D) [1]","expression ratio to the control, myosin family [1]","CTNNB1 catenin (cadherin-associated protein), beta 1, 88 kDa, gene expression ratio to no drug control (D) [2]","CTNNAL1 catenin (cadherin-associated protein), alpha-like 1, gene expression ratio to no drug control (D) [2]","CDH2 cadherin 2, type 1, N-cadherin (neuronal), gene expression ratio to no drug control (D) [2]","CDH5 cadherin 5, type 2, VE-cadherin, gene expression ratio to no drug control (D) [2]","CDH13 cadherin 13, H-cadherin (heart), gene expression ratio to no drug control (D) ([2]; probe 204726_at)","CDH12 cadherin 12, type 2 (N-cadherin 2), gene expression ratio to no drug control (D) [2]","CTNND1 catenin (cadherin-associated, protein), delta 1, gene expression ratio to no drug control (D) [2]","CTNNA1 catenin (cadherin-associated protein), alpha 1, 102 kDa, gene expression ratio to no drug control (D) [2]","CDH13 cadherin 13, H-cadherin (heart), gene expression ratio to no drug control (D) ([2]; probe 244091_at)","KCNU1 potassium channel, subfamily U, member 1, gene expression ratio to no drug control (D) [3]",further results
C/C=C(/C)C(=O)O[C@H]1[C@H](OC(=O)/C(C)=C\C)[C@@]2(CO)C(CC1(C)C)C1=CCC3[C@@]4(C)CC[C@H](O)C(C)(C)C4CC[C@@]3(C)[C@]1(C)[C@@H](O)[C@H]2O (some centres unmarked) [ACH-Y],9.5 µg/mL,−1.2 folds,−1.6 folds,−1.2 folds,−1.2 folds,−2.1 folds,−1.4 folds,−1.4 folds,−1.4 folds,−1.2 to −2.1 folds,1.2 folds,−1.6 folds,1.0 folds,−1.1 folds,−1.7 folds,−2.2 folds,−1.7 folds,−1.2 folds,−1.7 folds,−1.9 folds,"MTT activities of hydrolysed products of compound Y (tumor growth; FIG. 4C, 4D): very weak; anticancer activity retained after removal of sugars from Y (tumor growth; relative to Y): 40%; inhibition at 20 µg/mL ([4]; Homo sapiens, NCI-H460, H460 cells, 20 ug/ml): 28%"
"C/C=C(/C)C(=O)O[C@H]1[C@H](OC(=O)/C(C)=C\C)[C@@]2(CO)C(CC1(C)C)C1=CCC3[C@@]4(C)CC[C@H](O[C@@H]5OC(C(=O)O)[C@@H](O)C(O[C@@H]6O[C@@H](CO)C(O)C6O)C5O[C@@H]5OC(CO)[C@H](O)C(O)C5O)C(C)(C)C4CC[C@@]3(C)[C@]1(C)[C@@H](O)[C@H]2O (stereo partly drawn) [Xanifolia-Y, 3-O-[β-D-galactopyranosyl (1→2)]-α-L-arabinofuranosy (1→3)-β-D-glucuronopyranosyl-21,22-O-diangeloyl-3β, 15α, 16α, 21β, 22α, 28-hexahydroxyolean-12-ene]",4 µg/mL,−1.6 folds,−1.6 folds,−1.6 folds,−2.2 folds,−1.7 folds,−1.7 folds,−1.5 folds,−1.5 folds,−1.5 to −2.2 folds,−1.5 folds,−1.9 folds,−1.4 folds,−1.5 folds,−1.8 folds,−1.7 folds,−1.5 folds,−1.4 folds,−2.0 folds,−4.0 folds,"IC50 (tumor growth): 1.5 to 4.5 µg/mL; % inhibition of Fibronectin secretion ([4]; 20 ug/ml): 20-60%; % inhibition of Fibronectin secretion ([4]; 20 ug/ml, listed as Y): over 60%; inhibition at 10 µg/mL ([4]; Homo sapiens, NCI-H460, H460 cells, 10 ug/ml): 19%"
